Laboratory results as given in patent publication US20080299140A1, “Immunogenic Composition and Peptide Sequences for Prevention and Treatment of an Hsv Condition” (priority 2002, published 2008).
Like-named read-outs stand apart in the source and are kept apart here.

Key:
I-E^d molecule = biological target: T1, I-E^d molecule (Mus musculus, UniProt P01904+P01915); assay: Binding to I-E^d molecule; design: species or system mice
T1 sequence (P01904 26-255): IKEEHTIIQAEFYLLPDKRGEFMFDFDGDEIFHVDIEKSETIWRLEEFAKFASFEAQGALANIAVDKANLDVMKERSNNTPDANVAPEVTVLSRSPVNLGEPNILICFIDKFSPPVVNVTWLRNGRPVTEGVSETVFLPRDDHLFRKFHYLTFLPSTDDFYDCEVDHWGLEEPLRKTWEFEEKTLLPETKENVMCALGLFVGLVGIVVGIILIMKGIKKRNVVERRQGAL
T1 sequence (P01915 32-264): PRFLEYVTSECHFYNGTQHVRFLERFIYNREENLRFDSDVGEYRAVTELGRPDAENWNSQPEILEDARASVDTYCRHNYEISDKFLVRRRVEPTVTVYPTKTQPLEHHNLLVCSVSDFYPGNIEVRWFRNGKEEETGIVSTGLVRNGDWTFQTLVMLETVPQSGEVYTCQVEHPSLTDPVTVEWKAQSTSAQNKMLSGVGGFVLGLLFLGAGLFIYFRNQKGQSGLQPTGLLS

[1] = biological target: T2, DR1=HLA-DR(α1*0101,α1*0101) (Homo sapiens, UniProt P01903+P01911, A100R/D57E/F55L/F60I/F76Y/I96L/L162R/M171V/P40L/Q125E/R42F/V115G/Y59C); assay: biochemical; type: binding; settings: […]
T2 construct: endogenous in cells; host or cells: EBV homozygous human B cell line

[2] = tested on: lymphocytes obtained from HSV-1 infected H-2^d mice; assay: HSV-primed T-cell responses to gD peptides in HSV-1 infected mice; type: cell-based; settings: for T-cell responses recalled in HSV infected mice: HSV infected H-2^d mice (FIG. 6); for immunodominance of epitopes in HSV-primed T-cell responses: HSV-1 infected H-2^d mice
Protocol: Twelve days after the second immunization, spleen and inguinal lymph nodes (LN) were removed and placed into ice-cold serum free HL-1 medium supplemented with 15 mM HEPES, 5×10^−5 M β-mercaptoethanol, 2 mM glutamine, 50 U of penicillin and 50 μg of streptomycin (GIBCO-BRL, Grand Island, N.Y.) (complete medium, CM). The cells were cultured in 96-well plates at 5×10^5 cells/well in CM, with recall or control peptide at 30, 10, 3, 1, or 0.3 μg/ml concentration, as previously described in (BenMohamed et al., 2000 and 2002). The cell suspensions were incubated for 72 h at 37° C. in 5% CO2. One μCi (micro-curie) of (^3H)-thymidine (Dupont MEN, Boston, Mass.) was added to each well during the last 16 h of culture. The incorporated radioactivity was determined by harvesting cells onto glass fiber filters and counted on a Matrix 96 direct ionization-counter (Packard Instruments, Meriden, Conn.). Results were expressed as the mean cpm of cell-associated (^3H)-thymidine recovered from wells containing Ag minus the mean cpm of cell-associated (^3H)-thymidine recovered from wells without Ag (A cpm) (average of triplicate). The Stimulation Index (SI) was calculated as the mean cpm of cell-associated (^3H)-thymidine recovered from wells containing Ag divided by the mean cpm of cell-associated (^3H)-thymidine recovered from wells without Ag (average of triplicate). For all experiments the irrelevant control peptide gB141-165 and the T-cell mitogen Concanavalin A (ConA) (Sigma, St. Louis, Mo.) were used as negative and positive controls, respectively. Proliferation results were confirmed by repeating each experiment twice. A T-cell proliferative response was considered positive when A cpm>1000 and SI>2.
To define the fine specificity of broadly reactive T-cells associated with viral immunity and to explore immunodominance in the context of HSV infection, proliferation of lymphocytes obtained from twenty HSV-1 infected H-2^d mice were evaluated using the twelve gD peptides as Ag (FIG. 6). […] Despite a difference between individual mice, a unique array of T-cell responses was identified for each of the twenty infected mice analyzed.

T-cells = assay: Cytokine analysis (IL-2, IL-4, IFN-γ sandwich ELISA); type: cell-based, mice
Protocol: T-cells were stimulated with either immunizing peptides (10 μg/ml), the irrelevant control peptide (10 μg/ml), UV-inactivated HSV-1 (MOI=3), or with ConA (0.5 μg/ml) as a positive control. Culture media were harvested 48 h (for IL-2) or 96 h (for IL-4 and IFN-γ) later and analyzed by specific sandwich ELISA following the manufacturer's instructions (PharMingen, San Diego, Calif.).

[3] = Class II MHC allele DR1, read-out: IC50, DR1
[4] = T cells treated with Abs to CD4
[5] = T cells treated with Abs to CD8
[6] = splenocyte derived T cells, no Abs, average of triplicates (+/- SD)

Structure (SMILES)	binding to I-E^d molecule (I-E^d molecule)	IC50 ([1]; Table V, read-out: IC50 DR1)	IC50 [1, 3]	T-cell responses recalled in HSV infected mice [2]	immunodominance of epitopes in HSV-primed T-cell responses [2]	IFNγ, Anti-CD4 (T-cells; [4])	IL-2, Anti-CD4 (T-cells; [4])	IFNγ, Anti-CD8 (T-cells; [5])	IL-2, Anti-CD8 (T-cells; [5])	IFNγ, None (T-cells; [6])	IL-2, None (T-cells; [6])
CC[C@H](C)[C@H](NC(=O)[C@H](CO)NC(=O)[C@@H]1CCCN1C(=O)[C@@H](NC(=O)[C@H](Cc1c[nH]cn1)NC(=O)[C@H](Cc1c[nH]c2ccccc12)NC(=O)[C@H](CC(N)=O)NC(=O)[C@@H]1CCCN1C(=O)[C@@H]1CCCN1C(=O)[C@@H](NC(=O)[C@H](CCC(N)=O)NC(=O)[C@@H]1CCCN1C(=O)[C@H](C)N)[C@@H](C)CC)[C@@H](C)CC)C(=O)N[C@@H](CCC(N)=O)C(=O)N[C@@H](CC(=O)O)C(=O)N[C@@H](C)C(=O)N[C@@H](C)C(=O)N[C@H](C(=O)N1CCC[C@H]1C(=O)N[C@@H](Cc1ccc(O)cc1)C(=O)N[C@@H](Cc1c[nH]cn1)C(=O)N1CCC[C@H]1C(=O)N1CCC[C@H]1C(=O)N[C@@H](C)C(=O)N[C@H](C(=O)N1CCC[C@H]1C(=O)N[C@@H](CC(N)=O)C(=O)N[C@@H](CC(N)=O)C(=O)N[C@@H](CCSC)C(=O)NCC(=O)N[C@@H](CC(C)C)C(=O)O)[C@@H](C)O)[C@@H](C)O [HSV 35]	strong binders	3160 nM	3160 nM	either low or no response	immunodominant epitopes						
CC[C@H](C)[C@H](NC(=O)[C@@H]1CCCN1C(=O)[C@H](CS)NC(=O)[C@H](C)NC(=O)CNC(=O)[C@H](CC(C)C)NC(=O)[C@H](CO)NC(=O)[C@H](CCCCN)NC(=O)[C@@H](N)CC(N)=O)C(=O)N[C@@H](CCCNC(=N)N)C(=O)N[C@H](C(=O)N[C@@H](CCC(N)=O)C(=O)N1CCC[C@H]1C(=O)N[C@@H](CCCNC(=N)N)C(=O)N[C@@H](Cc1c[nH]c2ccccc12)C(=O)N[C@@H](CC(N)=O)C(=O)N[C@@H](Cc1ccc(O)cc1)C(=O)N[C@@H](Cc1ccc(O)cc1)C(=O)N[C@@H](CC(=O)O)C(=O)N[C@@H](CO)C(=O)N[C@@H](Cc1ccccc1)C(=O)N[C@@H](CO)C(=O)N[C@@H](C)C(=O)N[C@H](C(=O)N[C@@H](CO)C(=O)N[C@@H](CCC(=O)O)C(=O)N[C@@H](CC(=O)O)C(=O)N[C@@H](CC(N)=O)C(=O)N[C@@H](CC(C)C)C(=O)NCC(=O)N[C@@H](Cc1ccccc1)C(=O)N[C@@H](CC(C)C)C(=O)O)C(C)C)[C@@H](C)O [HSV 33]		53 nM	53 nM		subdominant epitopes						
CC[C@H](C)[C@H](NC(=O)[C@H](CCC(N)=O)NC(=O)[C@@H]1CCCN1C(=O)[C@H](C)NC(=O)[C@H](CCC(=O)O)NC(=O)[C@H](CO)NC(=O)[C@@H]1CCCN1C(=O)[C@H](C)NC(=O)[C@H](CC(N)=O)NC(=O)[C@H](CC(C)C)NC(=O)[C@H](CC(C)C)NC(=O)[C@@H](NC(=O)[C@H](CO)NC(=O)[C@H](CCCNC(=N)N)NC(=O)[C@H](CS)NC(=O)[C@H](C)NC(=O)[C@H](CCCNC(=N)N)NC(=O)[C@H](CCC(=O)O)NC(=O)[C@H](CC(C)C)NC(=O)[C@@H](NC(=O)[C@H](C)NC(=O)[C@H](Cc1ccc(O)cc1)NC(=O)[C@H](Cc1ccc(O)cc1)NC(=O)[C@@H](NC(=O)[C@@H](NC(=O)[C@@H](NC(=O)[C@@H]1CCCN1C(=O)[C@H](CC(C)C)NC(=O)[C@H](CO)NC(=O)[C@@H]1CCCN1C(=O)[C@@H]1CCCN1C(=O)[C@@H](N)CCC(N)=O)[C@@H](C)CC)[C@@H](C)O)C(C)C)C(C)C)C(C)C)C(=O)N[C@H](C(=O)N[C@@H](CCCNC(=N)N)C(=O)O)C(C)C [HSV 36]		3 nM	3 nM		immunodominant epitopes	6 (+/−2) ng/ml	22 (+/−2) pg/ml	66 (+/−2) ng/ml	88 (+/−5) pg/ml	60 (+/−4) ng/ml	92 (+/−5) pg/ml
CC[C@H](C)[C@H](NC(=O)[C@H](CO)NC(=O)[C@H](CC(=O)O)NC(=O)[C@@H](NC(=O)[C@@H](NC(=O)[C@@H](NC(=O)CNC(=O)[C@H](CCC(N)=O)NC(=O)[C@H](CCC(N)=O)NC(=O)[C@H](Cc1ccc(O)cc1)NC(=O)[C@H](C)NC(=O)[C@H](CCC(N)=O)NC(=O)[C@@H]1CCCN1C(=O)[C@H](CO)NC(=O)[C@H](CC(C)C)NC(=O)[C@H](CS)NC(=O)[C@H](C)NC(=O)[C@@H](N)CO)C(C)C)[C@@H](C)O)C(C)C)C(=O)NCC(=O)N[C@@H](CCSC)C(=O)N[C@@H](CC(C)C)C(=O)N1CCC[C@H]1C(=O)N[C@@H](CCCNC(=N)N)C(=O)N[C@@H](Cc1ccccc1)C(=O)N[C@H](C(=O)N1CCC[C@H]1C(=O)N[C@@H](CCC(=O)O)C(=O)N[C@@H](CC(N)=O)C(=O)N[C@@H](CCC(N)=O)C(=O)N[C@@H](CCCNC(=N)N)C(=O)N[C@H](C(=O)N[C@H](C(=O)N[C@@H](C)C(=O)N[C@H](C(=O)N[C@@H](Cc1ccc(O)cc1)C(=O)O)C(C)C)C(C)C)[C@@H](C)O)[C@@H](C)CC [HSV 37]	strong binders	4 nM	4 nM	either low or no response							
